Target: T1, human GlyT1c transporter (Homo sapiens, UniProt P48067)
T1 construct: expressed in transfected cells; host or cells: CHO cells (recombinant; line hGlyT1c_5_CHO is named for the uptake assay)
T1 sequence (P48067 1-706): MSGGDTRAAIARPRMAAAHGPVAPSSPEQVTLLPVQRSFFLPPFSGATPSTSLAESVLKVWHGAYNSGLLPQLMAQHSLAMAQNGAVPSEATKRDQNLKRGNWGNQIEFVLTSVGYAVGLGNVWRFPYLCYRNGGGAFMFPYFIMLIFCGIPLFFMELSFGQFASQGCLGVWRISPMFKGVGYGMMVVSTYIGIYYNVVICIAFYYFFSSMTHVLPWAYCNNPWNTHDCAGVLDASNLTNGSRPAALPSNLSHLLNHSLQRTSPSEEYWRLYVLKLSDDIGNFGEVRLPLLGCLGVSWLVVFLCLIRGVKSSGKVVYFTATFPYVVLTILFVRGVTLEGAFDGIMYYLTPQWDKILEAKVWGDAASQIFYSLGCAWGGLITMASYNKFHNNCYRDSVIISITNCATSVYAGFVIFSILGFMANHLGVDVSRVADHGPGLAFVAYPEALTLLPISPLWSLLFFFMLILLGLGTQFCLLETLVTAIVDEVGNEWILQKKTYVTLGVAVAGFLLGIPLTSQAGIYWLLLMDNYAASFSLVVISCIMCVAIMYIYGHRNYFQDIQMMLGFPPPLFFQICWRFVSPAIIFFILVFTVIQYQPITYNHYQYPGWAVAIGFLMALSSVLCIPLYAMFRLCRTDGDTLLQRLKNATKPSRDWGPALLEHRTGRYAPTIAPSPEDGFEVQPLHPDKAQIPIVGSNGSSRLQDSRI
Experiment: Radioligand binding assay using recombinant CHO cell membranes expressing human GlyT1
Settings: radioligand binding to human GlyT1c transporter-expressing membranes
Text: 2. Radioligand binding assays using recombinant CHO cell membranes expressing human GlyT1: […]

Ki [nM]	Structure (SMILES)
≤ 10000	COc1ccc(N[C@H]2CN(S(=O)(=O)c3cn(C)cn3)C[C@@H]2c2ccccc2)cc1C(F)(F)F [Example 653, (3R,4S)-N-[4-methoxy-3-(trifluoromethyl)phenyl]-1-[(1-methyl-1H-imidazol-4-yl)sulfonyl]-4-phenylpyrrolidin-3-amine]
≤ 1000	Cn1cnc(S(=O)(=O)N2C[C@H](Nc3ccc4c(c3)CCC4)[C@@H](c3ccccc3)C2)c1 [Example 655, (3R,4S)-N-(2,3-dihydro-1H-inden-5-yl)-1-[(1-methyl-1H-imidazol-4-yl)sulfonyl]-4-phenylpyrrolidin-3-amine]
≤ 1000	Cn1cnc(S(=O)(=O)N2C[C@H](Nc3ccc(C(F)(F)F)c(C(F)(F)F)c3)[C@@H](c3ccccc3)C2)c1 [Example 656, (3R,4S)-N-[3,4-bis(trifluoromethyl)phenyl]-1-[(1-methyl-1H-imidazol-4-yl)sulfonyl]-4-phenylpyrrolidin-3-amine]
≤ 1000	Cn1cnc(S(=O)(=O)N2C[C@H](Nc3ccc4c(c3)CCCC4)[C@@H](c3ccccc3)C2)c1 [Example 657, (3R,4S)-1-[(1-methyl-1H-imidazol-4-yl)sulfonyl]-4-phenyl-N-(5,6,7,8-tetrahydronaphthalen-2-yl)pyrrolidin-3-amine]
≤ 1000	Cn1cnc(S(=O)(=O)N2C[C@H](Nc3ccc4c(c3)CCCO4)[C@@H](c3ccccc3)C2)c1 [Example 658, (3R,4S)-N-(3,4-dihydro-2H-chromen-6-yl)-1-[(1-methyl-1H-imidazol-4-yl)sulfonyl]-4-phenylpyrrolidin-3-amine]
≤ 1000	Cn1cnc(S(=O)(=O)N2C[C@H](Nc3ccc4occc4c3)[C@@H](c3ccccc3)C2)c1 [Example 660, (3R,4S)-N-(1-benzofuran-5-yl)-1-[(1-methyl-1H-imidazol-4-yl)sulfonyl]-4-phenylpyrrolidin-3-amine]
≤ 10000	COC(=O)CCCC(=O)N[C@H]1CN(S(=O)(=O)c2cn(C)cn2)C[C@@H]1c1ccc(F)cc1 [Example 662, methyl 5-({(3R,4S)-4-(4-fluorophenyl)-1-[(1-methyl-1H-imidazol-4-yl)sulfonyl]pyrrolidin-3-yl}amino)-5-oxopentanoate]
≤ 100	Cn1cnc(S(=O)(=O)N2C[C@H](C(=O)NCc3ccc(C(F)(F)F)cc3Cl)[C@@H](c3ccc(F)cc3)C2)c1 [Example 663, (3R,4S)-N-[2-chloro-4-(trifluoromethyl)benzyl]-4-(4-fluorophenyl)-1-[(1-methyl-1H-imidazol-4-yl)sulfonyl]pyrrolidine-3-carboxamide]
≤ 100	CCCCCN[C@H]1CN(S(=O)(=O)c2cn(C)cn2)C[C@@H]1c1ccc(F)cc1 [Example 664, (3R,4S)-4-(4-fluorophenyl)-1-[(1-methyl-1H-imidazol-4-yl)sulfonyl]-N-pentylpyrrolidin-3-amine]
≤ 10000	COCCOCCN[C@H]1CN(S(=O)(=O)c2cn(C)cn2)C[C@@H]1c1ccccc1 [Example 666, (3R,4S)-N-[2-(2-methoxyethoxy)ethyl]-1-[(1-methyl-1H-imidazol-4-yl)sulfonyl]-4-phenylpyrrolidin-3-amine]
≤ 100	Cn1cnc(S(=O)(=O)N2C[C@H](NCCOc3ccc(F)cc3)[C@@H](c3ccc(F)cc3)C2)c1 [Example 667, (3R,4S)-N-[2-(4-fluorophenoxy)ethyl]-4-(4-fluorophenyl)-1-[(1-methyl-1H-imidazol-4-yl)sulfonyl]pyrrolidin-3-amine]
≤ 100	Cc1cc(N[C@H]2CN(S(=O)(=O)c3cn(C)cn3)C[C@@H]2c2ccccc2)ccc1Cl [Example 669, (3R,4S)-N-(4-chloro-3-methylphenyl)-1-[(1-methyl-1H-imidazol-4-yl)sulfonyl]-4-phenylpyrrolidin-3-amine]
≤ 10	Cn1cnc(S(=O)(=O)N2C[C@H](Nc3cccc(OCC(F)(F)F)c3)[C@@H](c3ccccc3)C2)c1 [Example 670, (3R,4S)-1-[(1-methyl-1H-imidazol-4-yl)sulfonyl]-4-phenyl-N-[3-(2,2,2-trifluoroethoxy)phenyl]pyrrolidin-3-amine]
≤ 1000	Cn1cnc(S(=O)(=O)N2C[C@H](Nc3ccc4c(c3)CCO4)[C@@H](c3ccccc3)C2)c1 [Example 671, (3R,4S)-N-(2,3-dihydro-1-benzofuran-5-yl)-1-[(1-methyl-1H-imidazol-4-yl)sulfonyl]-4-phenylpyrrolidin-3-amine]
≤ 1000	CCCCC(O)C(=O)N[C@H]1CN(S(=O)(=O)c2cn(C)cn2)C[C@@H]1c1ccc(F)cc1 (stereo partly drawn) [Example 673, N-{(3R,4S)-4-(4-fluorophenyl)-1-[(1-methyl-1H-imidazol-4-yl)sulfonyl]pyrrolidin-3-yl}-2-hydroxyhexanamide]

More lines, now with the values behind:

Structure (SMILES)	Ki [nM]
CCCCCCO[C@H]1CN(S(=O)(=O)c2cn(C)cn2)C[C@@H]1c1ccc(F)cc1 [Example 625, 4-{[(3S,4R)-3-(4-fluorophenyl)-4-(hexyloxy)pyrrolidin-1-yl]sulfonyl}-1-methyl-1H-imidazole]	≤ 10
Cc1cc(N[C@H]2CN(S(=O)(=O)c3cn(C)cn3)C[C@@H]2c2ccccc2)ncn1 [Example 637, 6-methyl-N-{(3R,4S)-1-[(1-methyl-1H-imidazol-4-yl)sulfonyl]-4-phenylpyrrolidin-3-yl}pyrimidin-4-amine]	≤ 10000
Cc1ccc(N[C@H]2CN(S(=O)(=O)c3cn(C)cn3)C[C@@H]2c2ccc(F)cc2)cc1C(F)(F)F [Example 638, (3R,4S)-4-(4-fluorophenyl)-1-[(1-methyl-1H-imidazol-4-yl)sulfonyl]-N-[4-methyl-3-(trifluoromethyl)phenyl]pyrrolidin-3-amine]	≤ 1000
Cn1cnc(S(=O)(=O)N2C[C@H](Nc3ccc(C#N)c(C(F)(F)F)c3)[C@@H](c3ccc(F)cc3)C2)c1 [Example 639, 4-({(3R,4S)-4-(4-fluorophenyl)-1-[(1-methyl-1H-imidazol-4-yl)sulfonyl]pyrrolidin-3-yl}amino)-2-(trifluoromethyl)benzonitrile]	≤ 10000
CCCn1cc([C@H]2CN(S(=O)(=O)c3cn(C)cn3)C[C@@H]2c2ccc(F)cc2)nn1 [Example 640, 4-{(3R,4S)-4-(4-fluorophenyl)-1-[(1-methyl-1H-imidazol-4-yl)sulfonyl]pyrrolidin-3-yl}-1-propyl-1H-1,2,3-triazole]	≤ 1000
Cn1cnc(S(=O)(=O)N2C[C@H](NC(=O)COc3ccc(F)cc3)[C@@H](c3ccc(F)cc3)C2)c1 [Example 644, 2-(4-fluorophenoxy)-N-{(3R,4S)-4-(4-fluorophenyl)-1-[(1-methyl-1H-imidazol-4-yl)sulfonyl]pyrrolidin-3-yl}acetamide]	≤ 10000
Cn1cnc(S(=O)(=O)N2C[C@H](Nc3ccc(F)c(OC(F)(F)F)c3)[C@@H](c3ccccc3)C2)c1 [Example 646, (3R,4S)-N-[4-fluoro-3-(trifluoromethoxy)phenyl]-1-[(1-methyl-1H-imidazol-4-yl)sulfonyl]-4-phenylpyrrolidin-3-amine]	≤ 10
COCCCCN[C@H]1CN(S(=O)(=O)c2cn(C)cn2)C[C@@H]1c1ccccc1 [Example 647, (3R,4S)-N-(4-methoxybutyl)-1-[(1-methyl-1H-imidazol-4-yl)sulfonyl]-4-phenylpyrrolidin-3-amine]	≤ 10000
CCC(CCCN[C@H]1CN(S(=O)(=O)c2cn(C)cn2)C[C@@H]1c1ccccc1)OC (stereo partly drawn) [Example 648, (3R,4S)-N-(4-methoxyhexyl)-1-[(1-methyl-1H-imidazol-4-yl)sulfonyl]-4-phenylpyrrolidin-3-amine]	≤ 10000
CCCC1CC1CN[C@H]1CN(S(=O)(=O)c2cn(C)cn2)C[C@@H]1c1ccccc1 (stereo partly drawn) [Example 649, (3R,4S)-1-[(1-methyl-1H-imidazol-4-yl)sulfonyl]-4-phenyl-N-[(2-propylcyclopropyl)methyl]pyrrolidin-3-amine]	≤ 100
CCCC1CC1CN[C@H]1CN(S(=O)(=O)c2cn(C)cn2)C[C@@H]1c1ccccc1 (stereo partly drawn) [Example 650, (3R,4S)-1-[(1-methyl-1H-imidazol-4-yl)sulfonyl]-4-phenyl-N-[(2-propylcyclopropyl)methyl]pyrrolidin-3-amine]	≤ 1000
Cn1cnc(S(=O)(=O)N2C[C@H](Nc3ccc4sccc4c3)[C@@H](c3ccccc3)C2)c1 [Example 654, (3R,4S)-N-(1-benzothiophen-5-yl)-1-[(1-methyl-1H-imidazol-4-yl)sulfonyl]-4-phenylpyrrolidin-3-amine]	≤ 1000
Cn1cnc(S(=O)(=O)N2C[C@H](Nc3ccc4c(c3)C(C)(C)CCO4)[C@@H](c3ccc(F)cc3)C2)c1 [Example 672, (3R,4S)-N-(4,4-dimethyl-3,4-dihydro-2H-chromen-6-yl)-4-(4-fluorophenyl)-1-[(1-methyl-1H-imidazol-4-yl)sulfonyl]pyrrolidin-3-amine]	≤ 1000
CCCC(CCN[C@H]1CN(S(=O)(=O)c2cn(C)cn2)C[C@@H]1c1ccccc1)OC (stereo partly drawn) [Example 674, (3R,4S)-N-(3-methoxyhexyl)-1-[(1-methyl-1H-imidazol-4-yl)sulfonyl]-4-phenylpyrrolidin-3-amine]	≤ 1000
